“And” between values parts separate entries of the source, which are not always exact repeats. Identical values can stand only once.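 Exposure lasted 48 hours, with cells grown in 96-well plates and compounds tested at five concentrations. Here, GI50 denotes the concentration required for 50% inhibition of growth. TGI marks complete inhibition of growth.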 A value given as a limit tells only on which side of the number the result lay.

Common to all, as to assay: NCI anticancer screen, dose series, 48 h
The test system of assay [1] is SK-MEL-2 melanoma.
In assay [2] the test system is HT29 colon.
Assay [3] has as its system NCI/ADR-RES ovarian.
Assay [4] relates to OVCAR-4 ovarian.
In assay [5] the test system is A498 renal.
The subject of assay [6] is HOP-92 NSCLC.
Assay [7] concerns SNB-19 CNS.
Assay [8] deals with UACC-257 melanoma.
Assay [9] deals with 786-0 renal.
The test system of assay [10] is NCI-H226 lung.

Turning to `C[C@@H](COCCC(=O)N1CCN(c2ncc(C(F)(F)F)cn2)CC1)Nc1cn[nH]c(=O)c1C(F)(F)F`, the GI50 is more than 100 µM in [1]; more than 100 µM in assay [2]; more than 90.5 µM in assay [3]; 27.8 µM in [4]; 0.0219 µM in assay [5]; 0.323 µM in assay [6]. Also, the GI50 in assay [7] was 34.2 µM; in assay [8], more than 94.4 µM; in assay [9] it was 59.1 µM; in assay [10] it was more than 56.2 µM. Also, the TGI in [1] is more than 100 µM; in assay [2], more than 100 µM; in [3] it was more than 100 µM; in assay [4], more than 100 µM; in assay [6], more than 65.7 µM; in [7], more than 100 µM. Also, the TGI in assay [8], in assay [9] and in assay [10] was more than 100 µM in each case.

`NC(=O)c1ccccc1NC(=O)c1ccccc1Cl`: the GI50 in [1] was more than 100 µM; in assay [2], more than 100 µM; in assay [3] it was more than 100 µM; in assay [4], more than 100 µM; in assay [5] it was 56.2 µM; in assay [6] it was 60.7 µM. Also, the GI50 in [7], in assay [8], in assay [9] and in assay [10] was more than 100 µM throughout. Besides, the TGI in assay [1], in [2], in assay [3], in assay [4], in [5] and in assay [6] was more than 100 µM throughout. The TGI in assay [7], in assay [8], in assay [9] and in assay [10] was more than 100 µM each time.

On to `COc1cc(F)c(/C=C/c2cc(/C=C/c3cc(OC)c(OC)cc3F)n(-c3cc(F)cc(F)c3)n2)cc1OC`, for which the GI50 in [1] is 3.08 µM; in [2] it was 2.27 µM; in assay [3] it was 2.23 µM; in [4] it was 1.97 µM; in [5], 14.5 µM; in assay [6] it was 6 µM. Further, the GI50 in [7] was 2.37 µM; in assay [8], 1.48 µM; in assay [9], 1.63 µM; in assay [10] it was 14.8 µM. In addition, the TGI in assay [1] was 10.3 µM; in assay [2], 6.81 µM; in assay [3] it was 5.65 µM; in assay [4] it was 5.75 µM; in assay [5], 28.8 µM; in [6] it was 21.5 µM. The TGI in assay [7] was 5.52 µM; in [8] it was 3.28 µM; in assay [9] it was 3.22 µM; in assay [10], 43.6 µM.

For `Cn1cnc2c(F)c(Nc3ccc(Br)cc3F)c(C(=O)NOCCO)cc21`, the GI50 is 0.0296 µM and 0.0113 µM in assay [1]; 0.0263 µM and 0.0316 µM in assay [2]; more than 100 µM in [3]; 8.06 µM in assay [4]; 0.0184 µM and 0.0314 µM in assay [5]; 0.0606 µM and 0.11 µM in [6]. Moreover, the GI50 in assay [7] was 4.37 µM; in assay [8], 0.0224 µM and 0.024 µM; in assay [9], more than 100 µM. The TGI in assay [1] is 0.448 µM and 0.0766 µM; in assay [2] it was more than 100 µM; in assay [3], more than 100 µM; in [4], more than 100 µM; in assay [5], 0.275 µM and 0.394 µM; in assay [6] it was 1.9 µM and 2.01 µM. Further, the TGI in assay [7] was more than 100 µM; in assay [8], 0.253 µM and 0.148 µM; in [9] it was more than 100 µM; in assay [10], more than 100 µM.

On to `Cc1cc(N(CCCNc2ccnc3cc(Cl)ccc23)Cc2ccc3c(c2)OCO3)nc(N2CCCCC2)n1`, for which the GI50 was 1.94 µM in [1]; 1.2 µM in [2]; 2.43 µM in [3]; 1.93 µM in assay [4]; 2.14 µM in assay [5]; 1.12 µM in assay [6]. Besides, the GI50 in assay [7] is 3.47 µM; in assay [8], 2.2 µM; in [9], 1.57 µM; in assay [10] it was 4.03 µM. In addition, the TGI in assay [1] came out at 3.77 µM; in assay [2] it was 3.02 µM; in assay [3], 8.03 µM; in [4], 6.45 µM; in assay [5] it was 5.11 µM; in assay [6] it was 3.49 µM. The TGI was 15.1 µM in assay [7], 4.22 µM in assay [8], 3.09 µM in assay [9] and 20.5 µM in [10].

For `NCCCN1CCN(CCCNc2nc3ccccc3c3[nH]c4ccccc4c23)CC1`, the GI50 in assay [1] is 0.567 µM; in [2], 0.212 µM; in [3], 3.1 µM; in assay [4], 0.414 µM; in [5] it was 1.62 µM; in [6], 0.346 µM. Besides, the GI50 in assay [7] was 0.34 µM; in assay [8] it was 2.51 µM; in [9] it was 0.421 µM; in assay [10] it was 0.442 µM. Also, the TGI worked out at 1.1 µM in assay [1]; 1.99 µM in [2]; 22 µM in [3]; 1.77 µM in assay [4]; 3.93 µM in assay [5]; 2.1 µM in assay [6]. Further, the TGI was determined as 2.07 µM in [7], 5.72 µM in assay [8], 2.94 µM in assay [9] and 1.1 µM in assay [10].

For the compound `Cc1nc2c(N3CCCC3)nc(N3CCNCC3)nc2nc1NCc1ccccc1`, the GI50 in assay [1] was 4.48 µM; in assay [2], 1.95 µM; in assay [3], 6.84 µM; in assay [4] it was 5.57 µM; in [5] it was 14.2 µM; in [8] it was 7.15 µM. The GI50 was 1.62 µM in assay [9] and 7.54 µM in [10]. The TGI was 9.42 µM and 9.97 µM in [1]; 8.36 µM and 11.7 µM in assay [2]; 13.6 µM and 29 µM in [3]; 11.7 µM and 21.7 µM in assay [4]; 9.77 µM and 27.2 µM in [5]; 7.83 µM and 13.7 µM in [6]. The TGI in assay [7] was 10.6 µM and 16.3 µM; in assay [8], 12.9 µM and 3.64 µM; in assay [9], 10.5 µM and 3.18 µM; in [10], 16.1 µM and 28.4 µM.

With `Clc1cc(-c2ccccc2)nc2ccccc12`, the TGI is 38 µM in assay [1]; more than 100 µM in assay [2]; more than 100 µM in assay [3]; 62.3 µM in [4]; 94.3 µM in assay [5]; more than 100 µM in [6]. In addition, the TGI in assay [7] was more than 100 µM; in assay [8], more than 100 µM; in assay [9], more than 100 µM; in assay [10], 92.9 µM.

Values taken from PubChem BioAssay (NCI).
